Measured values published in patent US20130316963A1, “INNATE DEFENCE REGULATORY PEPTIDE COMPOSITIONS FOR TREATMENT OF ARTHRITIS” (UNIVERSITY OF MANITOBA, priority 2010, published 2013).
Residues, ends and D or L forms follow the SMILES beside them.

Tested on: human FLS cells
Experiment: Cellular cytotoxicity by release of lactate dehydrogenase (LDH)
Assay type: cell-based
Settings: presence and absence of cytokine stimulation, 24 hr; IDR-1002 100 μg/ml, IDR-1 200 μg/ml; data not shown
Experimental: Synovial tissues were obtained from patients with OA in accordance to a protocol by the Institutional Review Board at the University of Manitoba. FLS cells were isolated from the synovial tissues following the procedure taught by Kammouni et al. (2007, Regulation of apoptosis in fibroblast-like synoviocytes by the hypoxia-induced Bcl-2 family member Bcl-2/adenovirus E1B 19-kd protein-interacting protein 3. Arthritis Rheum. 56:2854-2863). […] Cellular cytotoxicity was evaluated by monitoring the release of lactate dehydrogenase (LDH) employing a colorimetric detection kit (Roche Diagnostics, Laval, QC, Canada).
Inflammatory cytokines TNF-α and IL-1β stimulate cells types such as FLS, chondrocytes and macrophages resulting in the production of MMP-3 in arthritic joints. […] In this study we evaluated the impact of IDR peptides on TNF-α and IL-1β-induced MMP-3 production. […] The peptides were not cytotoxic to the FLS cells in the presence and absence of cytokine stimulation, as determined by monitoring the tissue culture supernatants for the release of LDH after 24 hr of stimulation (data not shown). Tissue culture supernatants were monitored after 24 hr of stimulation for MMP-3 production by ELISA. […]

CC[C@H](C)[C@H](NC(=O)[C@H](CCCNC(=N)N)NC(=O)[C@H](CO)NC(=O)[C@@H](N)CCCCN)C(=O)N[C@H](C(=O)N1CCC[C@H]1C(=O)N[C@@H](C)C(=O)N[C@H](C(=O)N1CCC[C@H]1C(=O)N[C@H](C(=O)N[C@@H](CO)C(=O)N[C@@H](CC(C)C)C(=O)N[C@@H](CC(C)C)C(=O)O)C(C)C)[C@@H](C)CC)C(C)C [IDR-1, KSRIVPAIPVSLL, reference compound] (H-KSRIVPAIPVSLL-OH)
cytotoxicity to FLS cells (release of LDH): not cytotoxic
